Measured values reported in patent US10906876B2, “Tetrahydroisoquinolines as selective NADPH oxidase 2 inhibitors” (University of Pittsburgh—Of the Commonwealth System of …, priority 2013, dated 2021).

Biological target: T1, Nox4 (Homo sapiens, UniProt Q9NPH5)
T1 construct: Plasmids encoding full-length human cDNAs for Nox1 (pcDNA3.1-hNox1), NOXO1 (pcDNA3.1-hNOXO1), NOXA1 (pCMVsport 6-hNOXA1), p47phox (pCMV-Tag4A-hp47) and Nox4 (pcDNA3-hNox4); expressed in transfected cells; host or cells: COS-22 (COS-7 stably expressing human p22phox), transient transfection with pcDNA3.1/Hygro-hNox4
T1 sequence (Q9NPH5 1-578): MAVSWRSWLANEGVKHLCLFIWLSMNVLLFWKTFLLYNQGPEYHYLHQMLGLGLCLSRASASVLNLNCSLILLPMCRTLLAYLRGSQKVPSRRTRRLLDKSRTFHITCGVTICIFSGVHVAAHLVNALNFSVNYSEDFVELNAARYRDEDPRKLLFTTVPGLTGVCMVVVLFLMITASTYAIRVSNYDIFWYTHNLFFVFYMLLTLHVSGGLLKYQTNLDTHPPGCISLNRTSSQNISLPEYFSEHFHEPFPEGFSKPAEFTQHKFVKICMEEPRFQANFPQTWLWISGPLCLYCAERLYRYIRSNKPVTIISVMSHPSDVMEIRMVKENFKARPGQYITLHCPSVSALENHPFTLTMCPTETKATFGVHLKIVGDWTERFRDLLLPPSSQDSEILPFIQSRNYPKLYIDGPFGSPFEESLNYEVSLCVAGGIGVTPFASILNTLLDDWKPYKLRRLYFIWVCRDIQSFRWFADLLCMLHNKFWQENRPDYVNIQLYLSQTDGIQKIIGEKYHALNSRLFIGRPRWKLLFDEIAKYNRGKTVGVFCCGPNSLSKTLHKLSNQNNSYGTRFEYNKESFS
T1 sequence (P13498 2-195 partner limits assumed): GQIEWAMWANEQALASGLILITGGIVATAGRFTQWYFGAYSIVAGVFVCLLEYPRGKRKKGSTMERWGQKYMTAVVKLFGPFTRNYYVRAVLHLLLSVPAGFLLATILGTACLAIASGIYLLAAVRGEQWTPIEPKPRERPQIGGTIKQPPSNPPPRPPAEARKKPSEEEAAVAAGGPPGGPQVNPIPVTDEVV
Test: Constitutive Nox4 activity in transiently transfected COS-Nox4 cells, Amplex Red assay
Assay type: cell-based
Conditions: COS-Nox4 cells
From the text: Plasmids encoding full-length human cDNAs for Nox1 (pcDNA3.1-hNox1), NOXO1 (pcDNA3.1-hNOXO1), NOXA1 (pCMVsport 6-hNOXA1), p47phox (pCMV-Tag4A-hp47) and Nox4 (pcDNA3-hNox4) were kindly provided by Dr. David Lambeth (Emory University, Ga.). Plasmids encoding Nox1, NOXO1, or NOXA1 were transformed and amplified into Escherichia coli strain TOP10 (Invitrogen, Carlsbad, Calif.). Plasmids were purified using a QIAfilter plasmid purification kit (QIAGEN Inc., Valencia, Calif.). For human Nox4 expression, the BglII/NotI restriction fragment from the pcDNA3-hNox4 was subcloned into the plasmid pcDNA3.1/Hygro(−) (Invitrogen, Carlsbad, Calif.) to generate pcDNA3.1/Hygro-hNox4. The fragment sequence, in-frame insertion and orientation were validated by DNA sequencing after PCR amplification. pcDNA3.1/Hygro-hNox4 was amplified into Escherichia coli strain TOP10 and purified with a QIAfilter plasmid purification kit.
Cell transfection was carried out using Lipofectamine LTX and Plus reagent (Invitrogen, Carlsbad, Calif., USA), according to the manufacturer's instructions. COS-22 cells were transiently co-transfected with pcDNA 3.1-hNox1, pCMVsport 6-hNOXA1 and pcDNA3.1-hNoxO1 (COS-Nox1/NOXO1/NOXA1 cells) or with pcDNA3.1/Hygro-hNox4 (COS-Nox4 cells). Cells were used 24 hr after transfection. Adherent cells were harvested by incubating with 0.05% trypsin/EDTA for 5 min at 37° C. Following addition of DMEM/10% FBS to neutralize the trypsin, the cells were pelleted by centrifugation at 1100×g for 5 min at 4° C. and used for the experiments.
H2O2 production was quantified in intact COS-Nox4 cells by Amplex® Red. Briefly, COS-Nox4 cells (5×10^4 cells/ml) were re-plated into 384-well plate in assay buffer (25 mM Hepes, pH 7.4, containing 0.12 M NaCl, 3 mM KCl, 1 mM MgCl2). The cells were incubated in the presence or absence of drugs at 37° C. in assay buffer supplemented with 0.1 mM Amplex® Red, and 0.32 U/ml of horse radish peroxidase (HRP) for 15 min. Fluorescence measurements were made using a Biotek Synergy 4 Hybrid Multi-Mode Microplate Reader with a 530/25-excitation and a 590/35-emission filter. The reaction was monitored at 37° C. for 1 h. A standard curve of known H2O2 concentrations was included on each plate. Nox4 activity was obtained by calculating the rate of H2O2 production as RFU/min and then subtracting the equivalent value given by non-transfected COS-22 cells. Similarly, H2O2 production by Nox2 cells was also measured by Amplex® Red as described above but in the presence of 150 U/mL of SOD and the reaction was initiated by addition of 5 μM PMA. The rate of H2O2 production in this case was calculated as RFU/min after the subtraction of the equivalent value given by non-stimulated cells. Data are expressed as % of vehicle control.
All data are expressed as means±SEM. IC50 values were determined using the GraphPad Prism software (GraphPad Software, San Diego, Calif.) for non-linear regression three-parameters, with constrain values of 100 and 0 for top and bottom, respectively, and assumes a Hill slope of 1.

Row | SMILES | Nox4 inhibitory activity
1 | C=C(C)CC1C2c3c(Br)cccc3C(CC2(C)C)N1Cc1cccs1 (racemic) [Compound 11h, (±)-(1S,4R,9S)-5-Bromo-3,3-dimethyl-9-(2-methylallyl)-10-(thiophen-2-ylmethyl)-1,2,3,4-tetrahydro-1,4-(epiminomethano)naphthalene] | virtually no effect
2 | C=C(C)CC1NC2CC(C)(C)C1c1ccccc12 (racemic) [Compound 8, (±)-(1S,4R,9S)-3,3-Dimethyl-9-(2-methylallyl)-1,2,3,4-tetrahydro-1,4-(epiminomethano)-naphthalene] | inactive
3 | C=C(C)CC1C2c3c(Br)cccc3C(CC2(C)C)N1CCCCC (racemic) [Compound 11g, (±)-(1S,4R,9S)-5-Bromo-3,3-dimethyl-9-(2-methylallyl-10-pentyl-1,2,3,4-tetrahydro-1,4-(epiminomethano)naphthalene] | virtually no effect
4 | C=C(C)CC1NC2CC(C)(C)C1c1c(Br)cccc12 (racemic) [Compound 7, (±)-(1S,4R,9S)-5-Bromo-3,3-dimethyl-9-(2-methylallyl)-1,2,3,4-tetrahydro-1,4-(epimino-methano)-naphthalene] | inactive

Same assay, conditions: constitutive activity, transiently transfected COS-Nox4 cells, read-out: IC50 of ROS generation, Nox4 (Amplex Red assay)

Row | SMILES | IC50 [µM]
5 | C=C(C)CC1C2c3ccccc3C(CC2(C)C)N1Cc1cccc(F)c1 (racemic) [Compound 11a, (±)-(1S,4R,9S)-10-(3-Fluorobenzyl)-3,3-dimethyl-9-(2-methylallyl)-1,2,3,4-tetrahydro-1,4-(epiminomethano)naphthalene] | > 100
6 | C=C(C)CC1C2c3c(Br)cccc3C(CC2(C)C)N1Cc1ccc2c(c1)OCO2 (racemic) [Compound 11d, (±)-(1S,4R,9S)-10-(Benzo[d][1,3]dioxol-5-ylmethyl)-5-bromo-3,3-dimethyl-9-(2-methylallyl)-1,2,3,4-tetrahydro-1,4-(epiminomethano)naphthalene] | > 100
7 | CC(C)CC1NC2CC(C)(C)C1c1c(Br)cccc12 (racemic) [Compound 13] | > 100
8 | C=C(C)CC1C2c3c(Br)cccc3C(CC2(C)C)N1CCCCC (racemic) [Compound 11g, (±)-(1S,4R,9S)-5-Bromo-3,3-dimethyl-9-(2-methylallyl-10-pentyl-1,2,3,4-tetrahydro-1,4-(epiminomethano)naphthalene] | > 100
9 | C=C(C)CC1C2c3c(Br)cccc3C(CC2(C)C)N1Cc1cccc(F)c1 (racemic) [Compound 11f, (±)-(1S,4R,9S)-5-Bromo-10-(3-fluorobenzyl)-3,3-dimethyl-9-(2-methylallyl)-1,2,3,4-tetrahydro-1,4-(epiminomethano)naphthalene] | > 100
10 | C=C(C)CC1NC2CC(C)(C)C1c1c(Br)cccc12 (racemic) [Compound 7, (±)-(1S,4R,9S)-5-Bromo-3,3-dimethyl-9-(2-methylallyl)-1,2,3,4-tetrahydro-1,4-(epimino-methano)-naphthalene] | > 100
11 | C=C(C)CC1C2c3c(Br)cccc3C(CC2(C)C)N1Cc1cc(C)on1 (racemic) [Compound 11e, (±)-3-(1S,4R,9S)-5-Bromo-3,3-dimethyl-9-(2-methylallyl)-1,2,3,4-tetrahydro-1,4-(epimino-methano) naphthalen-10-yl)methyl)-5-methylisoxazole] | > 100

The remaining lines, values ahead:

Row | IC50 [µM] | SMILES
12 | > 100 | C=C(C)CC1C2c3c(Br)cccc3C(CC2(C)C)N1S(C)(=O)=O (racemic) [Compound 14a, (±)-(1S,4R,9S)-5-Bromo-3,3-dimethyl-9-(2-methylallyl)-10-(methylsulfonyl)-1,2,3,4-tetrahydro-1,4-(epiminomethano)naphthalene]
13 | > 100 | C=C(C)CC1NC2CC(C)(C)C1c1c(-c3ccc(Cl)c(Cl)c3)cccc12 (racemic) [Compound 12a, (±)-(1S,4R,9S)-5-(3,4-Dichlorophenyl)-3,3-dimethyl-9-(2-methylallyl)-1,2,3,4-tetrahydro-1,4-(epiminomethano)naphthalene]
14 | > 100 | C=C(C)CC1C2c3c(-c4ccc(Cl)c(Cl)c4)cccc3C(CC2(C)C)N1CCCCC (racemic) [Compound 12c]
